Laboratory results published in ChEMBL document CHEMBL1201862, “PubChem BioAssay data set” (2004).
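Briefly, cells in 96-well plates were exposed to five compound concentrations for 48 h, and endpoints were estimated by linear interpolation. Abbreviation: GI50, concentration required for 50% inhibition of growth.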 The source made the active and inactive calls. No stated cut-off is given here; in the data, active = GI50 up to about 1.1 µM and inactive = higher.

Assays:
Assay in all cases: inhibition of tumour cell growth, NCI panel, 48 h
SNB-19 = system: SNB-19
SK-MEL-2 = system: SK-MEL-2
MDA-N = system: MDA-N
KM12 = system: KM12
A549 = system: A549
CCRF-CEM = system: CCRF-CEM
SF-295 = system: SF-295
MDA-MB-231 = system: MDA-MB-231
UACC-62 = system: UACC-62
MDA-MB-435 = system: MDA-MB-435
SN12C = system: SN12C
SK-MEL-28 = system: SK-MEL-28
SF-539 = system: SF-539
NCI-H460 = system: NCI-H460
RXF 393 = system: RXF 393
NCI-H23 = system: NCI-H23
HL-60 = system: HL-60
TK-10 = system: TK-10
EKVX = system: EKVX
DU-145 = system: DU-145

Measured: GI50

Clc1cc(-c2ccccc2)nc2ccccc12
inactive: SNB-19 88.7 µM | SK-MEL-2 19.1 µM | MDA-N 26 µM | KM12 28.1 µM | A549 35.6 µM | CCRF-CEM 23.8 µM | SF-295 38.4 µM | MDA-MB-231 35.4 µM | UACC-62 42.6 µM | MDA-MB-435 26.2 µM | SN12C 41.1 µM | SK-MEL-28 57.5 µM | SF-539 51.4 µM | NCI-H460 35.5 µM | RXF 393 31.7 µM | NCI-H23 51.6 µM | HL-60 22.5 µM | TK-10 34 µM | EKVX 31.9 µM | DU-145 40.6 µM

CC(CCCC1SCC2NC(=O)NC21)C(=O)O (configuration not stated)
inactive: SNB-19 > 100 µM | SK-MEL-2 > 100 µM | MDA-N > 100 µM | KM12 > 100 µM | A549 > 100 µM | SF-295 > 100 µM | MDA-MB-231 > 100 µM | UACC-62 > 100 µM | MDA-MB-435 > 100 µM | SN12C > 100 µM | SK-MEL-28 > 100 µM | SF-539 > 100 µM | NCI-H460 > 100 µM | RXF 393 > 100 µM | NCI-H23 > 100 µM | HL-60 > 100 µM | TK-10 > 100 µM | EKVX > 100 µM | DU-145 > 100 µM

O=[N+]([O-])c1ccc(N/N=C/c2ccc(OCCCCCCCCCCCO)cc2)c([N+](=O)[O-])c1
inactive: SNB-19 6.12 µM | SK-MEL-2 10.3 µM | MDA-N 3.58 µM | KM12 2.75 µM | A549 5.96 µM | CCRF-CEM 3.91 µM | SF-295 3.24 µM | MDA-MB-231 35.2 µM | UACC-62 2.32 µM | MDA-MB-435 2.48 µM | SN12C 3.24 µM | SK-MEL-28 4 µM | SF-539 1.97 µM | NCI-H460 2.5 µM | RXF 393 2.07 µM | NCI-H23 14.4 µM | HL-60 5.56 µM | TK-10 5.19 µM | EKVX 17 µM | DU-145 19.7 µM

COC(=O)C1=CN(C2CCCCC2)C2(c3ccccc3)c3ccccc3C(=O)OC(=O)C12 (configuration not stated)
inactive: SNB-19 > 100 µM | SK-MEL-2 > 100 µM | MDA-N 58.5 µM | KM12 > 100 µM | A549 95.5 µM | CCRF-CEM > 100 µM | SF-295 > 100 µM | MDA-MB-231 34.7 µM | MDA-MB-435 46.5 µM | SN12C > 100 µM | SK-MEL-28 > 100 µM | SF-539 > 100 µM | NCI-H460 80.2 µM | RXF 393 23 µM | NCI-H23 > 100 µM | HL-60 15.2 µM | TK-10 > 100 µM | EKVX > 100 µM | DU-145 > 100 µM

N#Cc1nc(-c2ccsc2)oc1N
inactive: SNB-19 > 100 µM | SK-MEL-2 > 100 µM | MDA-N > 100 µM | KM12 > 100 µM | A549 > 100 µM | CCRF-CEM > 100 µM | MDA-MB-231 > 100 µM | UACC-62 > 100 µM | MDA-MB-435 > 100 µM | SN12C > 100 µM | SK-MEL-28 > 100 µM | RXF 393 > 100 µM | HL-60 > 100 µM | TK-10 > 100 µM | EKVX > 100 µM | DU-145 > 100 µM

CC(NNC(=O)c1ccc[n+]([BH2-]C#N)c1)c1ccccc1 (configuration not stated)
inactive: SNB-19 > 100 µM | SK-MEL-2 > 100 µM | MDA-N > 100 µM | KM12 > 100 µM | CCRF-CEM 78.7 µM | SF-295 > 100 µM | MDA-MB-231 > 100 µM | UACC-62 > 100 µM | MDA-MB-435 > 100 µM | SN12C > 100 µM | SK-MEL-28 > 100 µM | SF-539 > 100 µM | NCI-H460 > 100 µM | RXF 393 > 100 µM | NCI-H23 > 100 µM | HL-60 86.1 µM | TK-10 > 100 µM | EKVX > 100 µM | DU-145 > 100 µM

CCC1(CC)C(=O)NN(C(=O)c2ccccc2)C1=O
inactive: SNB-19 > 100 µM | SK-MEL-2 > 100 µM | MDA-N > 100 µM | KM12 6.49 µM | A549 > 100 µM | CCRF-CEM 95.7 µM | SF-295 > 100 µM | MDA-MB-231 > 100 µM | UACC-62 > 100 µM | MDA-MB-435 > 100 µM | SN12C > 100 µM | SK-MEL-28 > 100 µM | NCI-H460 > 100 µM | RXF 393 > 100 µM | NCI-H23 > 100 µM | HL-60 > 100 µM | TK-10 > 100 µM | EKVX > 100 µM | DU-145 > 100 µM
